{
  "source": "patent US20070270462A1",
  "about": "“8-hydroxyquinoline compounds for treating a polyglutamine (polyQ)-expansion disease” (priority 2005, published 2007)",
  "key": {"YAC72 mice": {"test_system": "YAC72 mice", "format": "in vivo", "text": "Lower dosages need to be investigated to determine if such doses improve the effect. […] Moreover, since the drug is given as a single daily dose in a water suspension, it is possible that the window of time in which the blood levels are therapeutic may be small, perhaps only a few hours a day. To address these issues, it is proposed to use the R6/2 short term model for a dose-response study and then examine the effects of treatment on the longer term, milder YAC72 model. YAC72 animals carry a portion of a yeast artificial chromosome (YAC) bearing a full-length human htt gene (including the promoter) that is modified with a 72 CAG repeat expansion in exon 1. […]\nCQ is delivered blended into food pellets with vitamin B12 supplementation. […] In addition, it is determined what is the average rate of consumption and fluctuations in consumption rate through the course of the day. These parameters are measured periodically in test subjects as well, to allow adjustment of dosing for body weight and food intake. […] Animals are evaluated for a variety of parameters including clasping, rotarod performance, body weight, and survival, and animals are sacrificed at 12 weeks for western and immunohistochemical analysis of huntingtin fragment accumulation and striatal atrophy. […]"}, "Htt exon1-Q103-egfp": {"test_system": "Htt exon1-Q103-egfp", "test": "Pulse-chase assay of Htt exon1-Q103-egfp turnover", "format": "cell-based", "conditions": "HEK293 cells, 4 μM CQ", "description": "HEK293 cells at 90% confluence on 100 mm plates coated with poly-D-lysine (0.1 μg/μl) were transfected for 4 hr in Opti-MEM medium before replacement of the medium with MEM supplemented with 10% v/v FBS. After another 5 hr incubation, cells were trypsinized and replated in two wells of a 6-well plate, then incubated for another 14 hr at 37° C. The medium was replaced with methionine-free MEM medium supplemented with 5% v/v FBS, and cells incubated for 1.5 hr with 4 μM of CQ or DMSO vehicle added during the last 30 min of incubation. One mCi of Smethionine (Amersham Biosciences, Piscataway, N.J.) in 12 ml of methionine-free MEM was prepared as a pulse stock medium. Cells were pulsed for 10 min by replacing the medium with 1 ml of the pulse stock medium. At different time points, cells were washed twice with ice-cold PBS and lysed in 1 ml of IP lysis buffer (50 mM Tris-HCl, pH 7.5, 150 mM NaCl, 1% v/v NP-40, 0.5% v/v sodium deoxycholate, 1 tab mini-complete protease inhibitor/10 ml buffer). Cells were harvested by scraping, placed in 1.5 ml microcentrifuge tube, and lysed with constant agitation at 4° C. for at least 30 min before immunoprecipitation of the Htt^exon1-Q103-egfp protein using anti-polyglutamine antibody and protein G agarose beads (Roche, Indianapolis, Ind., USA). Assays were performed at least three times. […]"}},
  "data": [
    {"compound": "Oc1c(I)cc(Cl)c2cccnc12", "note": "[CQ, 5-chloro-7-iodo-8-hydroxy-quinoline]", "values": [
      {"measurement": "behavioral and pathologic features", "setting": "YAC72 mice; YAC72 mice, chronic CQ with B12 supplementation", "value": "significantly mitigate the behavioral and pathologic features"},
      {"measurement": "tolerability of chronic CQ administration", "setting": "YAC72 mice; mouse, in vivo", "value": "well tolerated"},
      {"measurement": "rates of Q103-egfp degradation in the presence of CQ", "setting": "Htt exon1-Q103-egfp", "value": "No significant differences"}
    ]}
  ]
}
